Laboratory results published in article PMC12406203 (Journal of Medicinal Chemistry, 2025).
Values joined by “and” are separate entries in the source; they are usually repeats but may differ in a detail not shown here. Equal values may be shown once.

Assays:
[1] = system: scopolamine-induced cognitive deficits in mice; assay: Passive avoidance task, scopolamine-induced amnesia; type: in vivo; details: for efficacy in PA task: 5 mg/kg i.p., scopolamine model; for step-through latency, retention trial (PA task): 10 mg/kg i.p., vs scopolamine-treated control mice
Text: In the scopolamine model, the PA and NOR tasks were used for dose selection for further testing.
The mice had unlimited access to food and water prior to the experiment. Specified conditions for the maintenance of mice were ensured throughout the experiment, including tree bedding (Transwior, Poland) and cage enrichment (tunnels, nesting material, wooden igloos, etc.). For behavioral tests, the mice were selected randomly; each group consisted of 7–10 mice.
Scopolamine hydrobromide (Sigma-Aldrich, Poland) at the dose of 1 mg/kg was used to induce learning and memory deficits. For the in vivo tests, scopolamine was prepared in distilled water (Polfa Kutno, Poland) and was administered subcutaneously (s.c.) 30 min before behavioral tests during the acquisition (training) trial of PA and NOR tasks. […] They were administered intraperitoneally (i.p.) 60 min before the acquisition trial of the PA, NOR, and MWM tasks.
The PA apparatus (Panlab Harvard Apparatus, Spain) consists of a large white-colored illuminated compartment (26 cm × 26 cm × 34 cm) and a small black-colored compartment (13 cm × 7.5 cm × 7.5 cm), which are separated from each other by a guillotine gate (5 cm × 5 cm). The PA task is divided into two trials (i.e., the acquisition trial and the retention trial), each conducted 24 h apart. On the first day, during the acquisition trial (a conditioning phase), the test compounds (94 and 95, neflamapimod and vehicle) were injected. Also, before the acquisition trial, scopolamine or LPS was administered at selected time points. Then, each mouse was placed into the white compartment, and a 30 s habituation period began (guillotine gate is closed). After that, the guillotine gate was opened, and the mice were tested during the 180 s testing period. As soon as the mouse entered the black compartment of the PA device, the guillotine gate was closed and an electrical shock (intensity: 0.2 mA, duration: 2 s) was automatically applied through the grid floor. For each mouse, the latency between the opening of the guillotine gate and the mouse’s entering the black compartment was measured. On the next day, during the retention (drug-off) trial, the mice were placed again into the white compartment for a 30 s habituation period, and the latency to enter the black compartment was measured for each mouse.

[2] = system: ZAP70
[3] = system: ADCK3
[4] = system: FAK
[5] = molecular target: hBChE (Homo sapiens, UniProt P06276); assay: biochemical
Procedure: (§1) The inhibitory potencies of the compounds against the ChEs were determined using the method of Ellman. […] The final content of DMSO was always 1% [v/v]. […] The initial velocities in the presence (v i ) and absence (v 0) of the test compounds were calculated. The inhibitory potencies were expressed as the residual activities, according to RA = (v i – b)/(v 0 – b), where b is the blank value using phosphate buffer without ChEs. For IC50 determinations, at least seven different concentrations for each compound were used. The IC50 values were obtained by plotting the residual ChE activities against the applied inhibitor concentrations, with the experimental data fitted to a four-parameter logistic function (GraphPad Prism 10.0).

[6] = system: PDGFRB
[7] = system: CDK3
[8] = molecular target: hBChE
[9] = molecular target: hAChE (Homo sapiens, UniProt P22303); details: for AChE inhibition: at a concentration of 100 μM; for hAChE RA at 100 μM: residual activity at 100 μM, mean ± SD, one experiment in triplicate
Procedure: as §1

[10] = Log D determination; type: physicochemical; details: pH 7.4, n-octanol/PBS
Procedure: Calibration curves for phosphate-buffered saline (PBS) (pH = 7.4) and octanol were prepared (0.05–5 μM). The buffer and n-octanol phases were shaken, using phosphate buffer (pH = 7.4). The phase ratios of buffer to n-octanol were 1:1 (0.8 mL octanol:0.8 mL PBS) and 1:3 (0.4 mL octanol:1.2 mL PBS). Octanol was then pipetted into a HPLC vial, followed by the addition of 1.6 μL of a 10 mM stock DMSO solution and the buffer. The vial was mixed with a vortex mixer and shaken for 3 h in the dark at 23 °C. Subsequently, the aqueous and organic phases were sampled with a syringe into a new HPLC vial, and the samples were analyzed using UHPLC/DAD.

[11] = system: TLR4, COX-2, NLRP3, cPLA2 levels in brains of LPS-treated mice; assay: Western blot of brains of LPS-treated mice (ex vivo); type: in vivo; details: 94, 95: 10 mg/kg i.p.; rivastigmine 1 mg/kg i.p.; vs LPS-treated control
Procedure: After the completion of cognitive assays carried out in the LPS model, the mice were sacrificed, and their brains were collected and stored for further analysis. In the ex vivo part of the study, murine brains were homogenized using T-PER mammalian protein extraction reagent (Thermo Fisher Scientific, Waltham, MA, USA) with protease (Merck Millipore, Burlington, MA, USA) and phosphatase inhibitors (Cayman Chemical, Ann Arbor, MI, USA). The total protein concentrations were determined using the Bradford reaction. Forty μg of the total proteins were solubilized in Laemmli buffer with 2% 2-mercaptoethanol and were subject to 10% SDS-polyacrylamide gel electrophoresis. The anticyclooxygenase 2 (COX-2, diluted 1:1000), antitoll-like receptor 4 (TLR4, diluted 1:1000), anticytosolic phospholipase A2 (cPLA2, 1:1000), and anti-inflammasome (NLPR3, diluted 1:500) were used (Thermo Fisher Scientific, Waltham, MA, USA). The endogenous control was β-actin (1:1000) (Thermo Fisher Scientific, Waltham, MA, USA). The secondary antibody was antirabbit IgG (HRP) diluted 1:2000 (Thermo Fisher Scientific, Waltham, MA, USA). Proteins were detected using the Clarity Western ECL Luminol Substrate (Bio-Rad, Hercules, CA, USA). Chemi Doc Camera with Image Lab 6.1 software (Bio-Rad) was used to quantify the integrated optical density of the bands. The results were normalized to the data obtained for β-actin after stripping the PVDF membrane using Restore Western Blot Stripping Buffer (Thermo Fisher Scientific, Waltham, MA, USA) and expressed as relative to the control. This thorough process ensures the validity and reliability of the results.

[12] = system: CSNK1D
[13] = system: JAK3(JH1domain-catalytic)
[14] = system: MLK1
[15] = system: PIK3CA
[16] = system: CDK11
[17] = system: BMPR2
[18] = Pharmacokinetic study in mice; details: for Cmax / MRT / Tmax / k el / Kp / AUC / AUC(0-t) / CL/F / Vd/F: male, CD-1, mouse, ip, 10 mg/kg; for Kp: brain/serum
Procedure: In this study, male CD-1 mice weighing 27–34 g housed in conditions of constant temperature with a 12:12 h light-dark cycle with free access to food and water were used. Both tested and reference compounds were suspended in 1% Tween in water for injection (Polpharma, Poland) and administered intraperitoneally (i.p.). The mice were sacrificed by decapitation under isoflurane anesthesia at different time points following compound administration. Brains were harvested at the same time points. Blood was allowed to clot at room temperature for 20 min, and serum was separated by centrifugation at 8 000g (Eppendorf MiniSpin centrifuge, Germany) for 10 min. All samples were stored at −80 °C until analysis.
The analytical workflow employed a Sciex QTRAP 4500 triple quadrupole mass spectrometer interfaced with an Exion LC AC HPLC system (Danaher Corporation, USA). Chromatographic separation was achieved on an XBridge C18 column (3 × 50 mm, 5 μm; Waters, USA), utilizing a mobile phase composed of acetonitrile and water both containing 0.1% formic acid. The column temperature was maintained at 40 °C, and a gradient elution protocol (Table S10) was implemented to ensure optimal analyte resolution and retention times. Mass spectrometric detection was conducted in unit resolution mode, with ion transitions specified in Table S11. […] Valsartan served as the internal standard and was monitored at m/z 436 → 207 (collision energy = 42 eV). Positive electrospray ionization (ESI+) was employed to enhance detection sensitivity. Ion path parameters (Table S11) were optimized via direct infusion of analyte solutions (7 μL/min) using a syringe pump. The optimized source conditions included an ion spray voltage of 5500 V, a source temperature of 450 °C, curtain gas pressure at 20 psi, and medium collision gas pressure. […] No significant matrix effects or stability concerns were observed during routine sample analysis. Data acquisition and processing were carried out using Analyst software version 1.7.
Serial dilutions were performed to generate working solutions ranging from 0.01 to 20 μg/mL, corresponding to final calibration concentrations of 0.001–2 μg/mL. For calibration curve construction, 5 μL of each working solution was spiked into 45 μL of the relevant biological matrix (serum or brain homogenate) and vortexed for 10 s. Sample preparation involved protein precipitation, in a 1:3 (v/v) ratio, using acetonitrile containing 0.1% formic acid and the internal standard. The mixtures were agitated for 10 min using an IKA Vibrax VXR shaker (Germany), followed by centrifugation at 8000 × g for 5 min (Eppendorf miniSpin, Germany). The resulting supernatants were transferred to chromatographic vials for analysis.
Brain tissues were homogenized in distilled water at a 1:4 (w/v) ratio using an ULTRA-TURRAX T10 basic homogenizer (IKA, Germany). Aliquots of brain homogenate or serum (50 μL) were subjected to protein precipitation in a 1:3 (v/v) ratio with acetonitrile containing 0.1% formic acid and the internal standard. The mixtures were agitated for 10 min using an IKA Vibrax VXR shaker (Germany), followed by centrifugation at 8000 × g for 5 min (Eppendorf miniSpin, Germany). The resulting supernatants were directly transferred to chromatographic vials for analysis. In cases where analyte concentrations in serum exceeded 20 μg/mL, samples were diluted with blank matrix prior to the deproteinization step. The autosampler was maintained at 15 °C, and a 1 μL aliquot was injected onto the analytical column.
Pharmacokinetic parameters were estimated using the noncompartmental analysis (NCA). The maximum concentration (C max) and the time to reach maximum concentration (t max) in serum and brain were obtained directly from the concentration versus time data.

[19] = system: hAChE
[20] = hBChE IC50 ± SEM, two independent experiments, each in triplicate
[21] = in vitro hBChE IC50, IC50 expressed as concentration in ng/mL

Chain of hAChE (Homo sapiens, UniProt P22303) (P22303 32-614): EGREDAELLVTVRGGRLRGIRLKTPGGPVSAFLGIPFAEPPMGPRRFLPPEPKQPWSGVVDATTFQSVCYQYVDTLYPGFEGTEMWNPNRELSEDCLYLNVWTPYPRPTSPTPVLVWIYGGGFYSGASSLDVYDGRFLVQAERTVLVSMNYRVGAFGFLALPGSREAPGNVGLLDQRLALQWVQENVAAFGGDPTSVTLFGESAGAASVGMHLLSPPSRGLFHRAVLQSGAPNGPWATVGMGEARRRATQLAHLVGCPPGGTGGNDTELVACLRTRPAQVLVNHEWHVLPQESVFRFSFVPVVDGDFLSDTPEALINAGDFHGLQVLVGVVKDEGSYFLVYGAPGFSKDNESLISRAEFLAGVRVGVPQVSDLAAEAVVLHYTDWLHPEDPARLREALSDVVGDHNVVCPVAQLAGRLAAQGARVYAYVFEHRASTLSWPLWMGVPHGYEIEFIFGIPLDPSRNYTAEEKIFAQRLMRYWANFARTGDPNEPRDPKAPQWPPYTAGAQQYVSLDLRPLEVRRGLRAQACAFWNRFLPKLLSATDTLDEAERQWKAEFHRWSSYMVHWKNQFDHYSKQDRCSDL
Chain of hBChE (Homo sapiens, UniProt P06276) (P06276 29-602): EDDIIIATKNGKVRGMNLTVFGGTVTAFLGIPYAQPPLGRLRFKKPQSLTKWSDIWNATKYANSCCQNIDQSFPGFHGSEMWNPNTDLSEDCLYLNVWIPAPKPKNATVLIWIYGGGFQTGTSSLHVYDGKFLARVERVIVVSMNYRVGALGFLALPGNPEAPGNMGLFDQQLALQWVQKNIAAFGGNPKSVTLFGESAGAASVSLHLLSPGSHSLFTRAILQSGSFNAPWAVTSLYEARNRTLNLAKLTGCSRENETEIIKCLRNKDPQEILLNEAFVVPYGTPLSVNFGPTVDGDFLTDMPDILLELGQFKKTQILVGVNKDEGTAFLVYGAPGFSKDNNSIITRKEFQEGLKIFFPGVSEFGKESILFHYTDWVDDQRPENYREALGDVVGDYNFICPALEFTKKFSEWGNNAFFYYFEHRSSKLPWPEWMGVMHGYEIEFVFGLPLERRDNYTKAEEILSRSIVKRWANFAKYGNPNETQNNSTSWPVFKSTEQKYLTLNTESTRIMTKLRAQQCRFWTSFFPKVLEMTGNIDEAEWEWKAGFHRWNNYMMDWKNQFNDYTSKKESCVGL

For `CC(C)Cn1ncc2cc(Cc3ccc(F)cc3F)c(C(=O)NCCN(C)C)cc21` [Compound 94, 5-(2,4-Difluorobenzyl)-N-(2-(dimethylamino)ethyl)-1-isobutyl-1H-indazole-6-carboxamide], the “efficacy in PA task” value [1] was “not statistically significantly effective”, the “step-through latency, retention trial (PA task)” value [1] was “statistically significant prolonged step-through latency” and the RA @ 1000nM [2] was 100%. For the same compound, the RA @ 10000nM [2] was 79%, the RA @ 1000nM [3] was 100% and the RA @ 10000nM [3] was 100%. For the same compound, the RA @ 1000nM [4] was 96%, the RA @ 10000nM [4] was 89% and the IC50 [5, 20] was 652 ± 112 nM. For the same compound, the IC50 [5, 21] was 651 nM, the RA @ 1000nM [6] was 100% and the RA @ 10000nM [6] was 97%. The RA @ 1000nM [7] was 100%, the RA @ 10000nM [7] was 1.3% and the IC50 [8] was 652 nM and 270 ng/mL. The AChE inhibition [9] was “did not inhibit AChE”, the “hAChE RA at 100 μM” value [9] was 69.0% and 69 ± 4% and the “measured log D at pH 7.4” value [10] was 2.13. The “brain cPLA2 expression” value [11] was “no difference”, the “brain levels of TLR4, COX-2, and NLRP3” value [11] was “significantly lower levels” and the RA @ 1000nM [12] was 86%. For the same compound, the RA @ 10000nM [12] was 79%, the RA @ 1000nM [13] was 100% and the RA @ 10000nM [13] was 100%. For the same compound, the RA @ 1000nM [14] was 100%, the RA @ 10000nM [14] was 100% and the RA @ 1000nM [15] was 77%. It also gave an RA @ 10000nM [15] of 95%, an RA @ 1000nM [16] of 100% and an RA @ 10000nM [16] of 89%. The RA @ 1000nM [17] was 86%, the RA @ 10000nM [17] was 95% and the “elimination half-life in brain compared to serum” value ([18]; 10 mg/kg i.p., mice) was “over 2 fold”. For the same compound, the “AUC0‑∞” value ([18]; brain, 10 mg/kg i.p., mice) was 50863.30 ng·min/mL(g), the “AUC0–t” value ([18]; brain, 10 mg/kg i.p., mice) was 48459.19 ng·min/mL(g) and the t0.5λz ([18]; brain, 10 mg/kg i.p., mice) was 210.94 min. For the same compound, the Cmax ([18]; brain) was 658 ng/g, the MRT ([18]; brain) was 102 min and the Tmax ([18]; brain) was 15 min. It also gave a k el ([18]; brain) of 5.5e-05 s⁻¹, a Kp [18] of 1.58 and an AUC ([18]; serum) of 536 ng·h/mL. For the same compound, the AUC(0-t) ([18]; serum) was 532 ng·h/mL, the CL/F ([18]; serum) was 310 mL/min/kg and the Cmax ([18]; serum) was 946 ng/mL. For the same compound, the MRT ([18]; serum) was 53.8 min, the Tmax ([18]; serum) was 5 min and the Vd/F ([18]; serum) was 46 L/kg. The k el ([18]; serum) was 0.000112 s⁻¹, the “AUC0–t ratio compound 94 to compound 95” value ([18]; serum, 10 mg/kg i.p., mice) was 0.53 and the t0.5λz ([18]; serum, 10 mg/kg i.p., mice) was 102.50 min.
For `CN(C)CCNC(=O)c1cc2c(cnn2CC2CCCCC2)cc1Cc1ccc(F)cc1F` [Compound 95, 1-(Cyclohexylmethyl)-5-(2,4-difluorobenzyl)-N-(2-(dimethylamino)ethyl)-1H-indazole-6-carboxamide], the “efficacy in PA task” value [1] was “not statistically significantly effective”, the “step-through latency, retention trial (PA task)” value [1] was “statistically significant prolonged step-through latency” and the RA @ 1000nM [2] was 100%. It also gave an RA @ 10000nM [2] of 100%, an RA @ 1000nM [3] of 100% and an RA @ 10000nM [3] of 81%. The RA @ 1000nM [4] was 92%, the RA @ 10000nM [4] was 94% and the IC50 [5, 20] was 772 ± 57 nM. For the same compound, the IC50 [5, 21] was 770 nM, the RA @ 1000nM [6] was 100% and the RA @ 10000nM [6] was 96%. For the same compound, the RA @ 1000nM [7] was 100%, the RA @ 10000nM [7] was 100% and the IC50 [8] was 772 nM and 350 ng/mL. For the same compound, the AChE inhibition [9] was “did not inhibit AChE”, the “hAChE RA at 100 μM” value [9] was 53.4% and 53 ± 1% and 53.4 ± 0.8% and the “measured log D at pH 7.4” value [10] was 2.77. The “brain cPLA2 expression” value [11] was “no difference”, the “brain levels of TLR4, COX-2, and NLRP3” value [11] was “significantly lower levels” and the RA @ 1000nM [12] was 93%. The RA @ 10000nM [12] was 84%, the RA @ 1000nM [13] was 100% and the RA @ 10000nM [13] was 100%. The RA @ 1000nM [14] was 100%, the RA @ 10000nM [14] was 90% and the RA @ 1000nM [15] was 100%. It also gave an RA @ 10000nM [15] of 100%, an RA @ 1000nM [16] of 92% and an RA @ 10000nM [16] of 100%. For the same compound, the RA @ 1000nM [17] was 89%, the RA @ 10000nM [17] was 92% and the “AUC0‑∞” value ([18]; brain, 10 mg/kg i.p., mice) was 51082.15 ng·min/mL(g). The “AUC0–t” value ([18]; brain, 10 mg/kg i.p., mice) was 49811.92 ng·min/mL(g), the t0.5λz ([18]; brain, 10 mg/kg i.p., mice) was 89.51 min and the Cmax ([18]; brain) was 343 ng/g. For the same compound, the MRT ([18]; brain) was 128 min, the Tmax ([18]; brain) was 15 min and the k el ([18]; brain) was 0.000128 s⁻¹. The Kp [18] was 0.83, the AUC ([18]; serum) was 1030 ng·h/mL and the AUC(0-t) ([18]; serum) was 999 ng·h/mL. It also gave a CL/F ([18]; serum) of 160 mL/min/kg, a Cmax ([18]; serum) of 617 ng/mL and an MRT ([18]; serum) of 118 min. For the same compound, the Tmax ([18]; serum) was 15 min, the Vd/F ([18]; serum) was 23.4 L/kg and the k el ([18]; serum) was 0.000115 s⁻¹. The t0.5λz ([18]; serum, 10 mg/kg i.p., mice) was 100.15 min and the “RA at 100 µM” value [19] was 53.4 ± 0.8%.
